The results in this text go back to ChEMBL document CHEMBL4482317, “Phosphatidylcholine transfer protein inhibitors” (2017).

Each structure is given as a SMILES string. The source made the active and inactive calls. The rule behind the calls is not given here.

Test [1] concerns the target T1, Phosphatidylcholine transfer protein (Homo sapiens) (UniProt Q9UKL6).
T1 sequence (whole entry): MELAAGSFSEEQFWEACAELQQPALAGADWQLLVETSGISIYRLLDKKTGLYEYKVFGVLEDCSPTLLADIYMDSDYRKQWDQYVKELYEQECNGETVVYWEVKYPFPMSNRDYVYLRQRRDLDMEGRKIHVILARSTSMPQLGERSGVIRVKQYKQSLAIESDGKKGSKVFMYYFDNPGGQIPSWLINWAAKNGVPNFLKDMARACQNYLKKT
In words: Inhibition of PC-TP in human hepatocytes assessed as enhancement of insulin signaling by measuring p-S6K T389 levels at 0.05 to 0.1 uM incubated for 60 mins by immunoblot analysis. The format is cell-based. (In general: A western blot detects proteins with antibodies after separation by electrophoresis.)

Test [2] addresses T1, Phosphatidylcholine transfer protein (Homo sapiens). In words: Inhibition of PC-TP in human hepatocytes assessed as enhancement of insulin signaling by measuring p-AKT S473 levels at 0.05 to 0.1 uM incubated for 60 mins by immunoblot analysis. The class given is cell-based.
For test [3] the target is unchanged. The test can be described thus: Inhibition of PC-TP in human hepatocytes assessed as enhancement of insulin signaling by measuring p-GSK-3beta S9 levels at 0.05 to 0.1 uM incubated for 60 mins by immunoblot analysis. The format is cell-based.
For test [4] the target is unchanged. In words: Inhibition of PC-TP in human hepatocytes assessed as enhancement of insulin signaling by measuring p-AMPK-alpha T172 levels at 0.05 to 0.1 uM incubated for 60 mins by immunoblot analysis. The format is cell-based.
The target in test [5] is T2, Phosphatidylcholine transfer protein (Homo sapiens, UniProt Q9UKL6).
T2 sequence (Q9UKL6 whole entry): T1 sequence (whole entry)
In words: Inhibition of N-terminal His-tagged human PC-TP expressed in Escherichia coli using NBD-PC and donor and acceptor small unilamellar vesicles by fluorescence quench assay.

In test [6] the target is T1, Phosphatidylcholine transfer protein (Homo sapiens). The test can be described thus: Binding affinity to N-terminal His-tagged human PC-TP expressed in Escherichia coli at 5 to 75 uM in presence of TCNQ by fluorescent pyrene-labeled phosphatidylcholine based displacement assay.
The target is the same in test [7]. The test can be described thus: Binding affinity to N-terminal His-tagged human PC-TP expressed in Escherichia coli assessed as relative binding constant K(rel) at 5 to 75 uM in presence of TCNQ by fluorescent pyrene-labeled phosphatidylcholine based displacement assay relative to control.

With `O=C(Nc1cc(Cl)cc(Cl)c1)C(Sc1cccc[n+]1[O-])c1ccccc1` (stereo unspecified), the inhibition result in test [1], in test [2], in test [3] and in test [4] was “Active” each time.

The term IC50 denotes the midpoint of a concentration-inhibition curve. On to `Cc1ccc(NC(=O)C(Sc2cccc[n+]2[O-])c2ccccc2)cc1Cl` (stereo unspecified), for which the IC50 in test [5] came to 100 µM.

On to `Cc1cc(C)nc(NS(=O)(=O)c2ccc(NC(=O)NC(=O)c3ccc(Cl)cc3Cl)cc2)n1`, for which the inhibition result in test [1], in test [2], in test [3] and in test [4] was “Active” in each case. The Activity entry in test [6] was “Dose-dependent effect”. Also, in test [7], the Ratio came to 1.1.
